According to patent publication US11014904B2, “1,2,4-triazine-3-amine derivative, preparation method therefor, and use thereof in medicine” (Jiangsu Hengrui Medicine Co., Ltd., priority 2017, dated 2021):

Tests used:
[1] = Pharmacokinetics assay in mice; type: in vivo; conditions: mouse, po, C57 mice (female), intragastric, 2 mg/kg, plasma; for Vd/F: read-out: Apparent distribution volume Vz/F; for AUC: read-out: Area under curve AUC; for CL/F: read-out: Clearance CLz/F; for half-life: read-out: Half-life T½ (converted); for Cmax: read-out: Plasma concentration Cmax; for MRT: read-out: Residence time MRT
Description: Mice were used as test animals. The drug concentration in plasma at different time points was determined by LC/MS/MS method after intragastrical administration of the compounds of Examples 2, 3, 17, 18, 19, 20, 31 and 44 to mice. The pharmacokinetic behavior of the compounds of the present invention was studied and evaluated in mice.
Seventy-two C57 mice (female) were purchased from Shanghai Jiesijie Laboratory Animal Co., LTD, with Certificate No.: SCXK (Shanghai) 2013-0006, and equally divided into 8 groups (9 mice per group).
A certain amount of the test compound was weighed, and added with 5% by volume of DMSO, 5% by volume of tween 80 and 90% by volume of normal saline to prepare a 0.1 mg/mL colorless, clear and transparent solution.
After an overnight fast, C57 mice were administered intragastrically the test compounds at an administration dosage of 2.0 mg/kg and an administration volume of 0.2 mL/10 g.
The mice were intragastrically administered the compounds of Examples 2, 3, 17, 18, 19, 20, 31 and 44. 0.1 ml of blood was taken before administration and at 0.5, 1.0, 2.0, 4.0, 6.0, 8.0, 11.0 and 24.0 hours after administration. The samples were stored in heparinized tubes, and centrifuged for 10 minutes at 3,500 rpm to separate the blood plasma. The plasma samples were stored at −20° C.
The content of the test compounds in the plasma of mice after intragastrical administration of the test compounds at different concentrations was determined: 25 μL of mouse plasma at each time after administration were taken, added with 50 μL of the internal standard solution of camptothecin (100 ng/mL) and 200 μL of acetonitrile, vortex-mixed for 5 minutes, and centrifuged for 10 minutes (4000 rpm). 5 μL of the supernatant were taken from the plasma samples for LC/MS/MS analysis.

[2] = biological target: T1, adenosine A1 receptor (A1R) (Homo sapiens, UniProt P30542); experiment: Inhibition of the adenosine A1 receptor cAMP signaling pathway in CHO-K1/A1R cells (HTRF); type: cell-based; conditions: for IC50: CHO-K1/A1R cells, cAMP, forskolin 10 μM, CPA 10 nM; for IC50 ratio (A1R/A2aR): selectivity A1R over A2aR
T1 construct: expressed in transfected cells; host or cells: CHO-K1
T1 sequence (P30542 1-326): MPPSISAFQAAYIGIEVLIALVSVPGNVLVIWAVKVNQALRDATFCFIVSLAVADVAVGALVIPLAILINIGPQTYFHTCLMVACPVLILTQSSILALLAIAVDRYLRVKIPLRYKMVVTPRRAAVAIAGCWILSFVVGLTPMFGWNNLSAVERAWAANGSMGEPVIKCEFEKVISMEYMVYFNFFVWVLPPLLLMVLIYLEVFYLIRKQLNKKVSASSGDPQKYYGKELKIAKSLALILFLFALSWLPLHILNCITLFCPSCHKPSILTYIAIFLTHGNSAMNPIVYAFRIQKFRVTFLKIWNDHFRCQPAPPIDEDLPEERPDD
From the text: Determination of the inhibition activity of the compounds of the present invention on the adenosine A2a receptor (A2aR) cAMP signaling pathway, the adenosine A2b receptor (A2bR) cAMP signaling pathway, the adenosine A1 receptor (A1R) cAMP signaling pathway and the adenosine A3 receptor (A3R) cAMP signaling pathway.
The inhibition activity of the compounds of the present invention on the adenosine A2a receptor (A2aR) cAMP signaling pathway, the adenosine A2b receptor cAMP signaling pathway, the adenosine A1 receptor cAMP signaling pathway and the adenosine A3 receptor cAMP signaling pathway was determined by the following method. The experimental method is briefly described as follows:
2.3 Adenosine A1 Receptor
CHO-K1/A1R cells were cultured in DMEM/F12 medium containing 10% fetal bovine serum and 1 mg/ml G418. The cells were digested with the cell separation buffer during the experiment. The cells were then resuspended in the balanced salt buffer containing 20 mM HEPES and 0.1% bovine serum albumin and counted, and the cell density was adjusted to 5×10^5 cells/ml. In the 384-well plate, each well was added with 12.5 μl of cell suspension, and 6.25 μl of test compound (4× concentration) formulated with the balanced salt buffer containing 20 mM HEPES, 0.1% bovine serum albumin, 54 μM rolipram and 2.7 U/ml adenosine deaminase, and the plate was incubated at room temperature for 30 minutes. Each well was then added with 6.25 μl of forskolin and N6-cyclopentyladenosine (4× concentration) formulated with the balanced salt buffer containing 20 mM HEPES, 0.1% bovine serum albumin, 54 μM rolipram and 2.7 U/ml adenosine deaminase, and the plate was incubated at room temperature for 30 minutes. The final concentrations of the compounds were: 100000, 10000, 1000, 100, 10, 1, 0.1 and 0 nM. The final concentrations of forskolin was 10 μM. The final concentrations of CPA was 10 nM. Intracellular cAMP concentration was detected with the cAMP dynamic 2 kit. cAMP-d2 and Anti-cAMP-Eu-Cryptate were diluted respectively with the cAMP lysis buffer at a ratio of 1:4. Each well was added with 12.5 μl of diluted cAMP-d2, followed by addition of 12.5 μl of diluted Anti-cAMP-Eu-Cryptate, and the plate was incubated at room temperature in the dark for 1 hour. The HTRF signal values were read by the PHERAstar multi-function microplate reader.

Structure (SMILES)	Vd/F [1] [L/kg]	AUC [1] [ng·h/mL]	CL/F [1] [mL/min/kg]	half-life [1] [h]	Cmax [1] [ng/mL]	MRT [1] [h]	IC50 [2] [nM]	IC50 ratio (A1R/A2aR) [2]
Cc1ccnc2ccc(-c3nnc(N)nc3-c3ccc(F)cc3)cc12 [Example 18, 5-(4-Fluorophenyl)-6-(4-methylquinolin-6-yl)-1,2,4-triazin-3-amine]	9.01	495	65	1.59	402	1.43	190	948
Cc1ncnc2ccc(-c3nnc(N)nc3-c3ccccc3)cc12 [Example 15, 6-(4-Methylquinazolin-6-yl)-5-phenyl-1,2,4-triazin-3-amine]							248	2484
Cc1ccnc2c(F)cc(-c3nnc(N)nc3-c3ccccc3F)cc12 [Example 31, 6-(8-Fluoro-4-methylquinolin-6-yl)-5-(2-fluorophenyl)-1,2,4-triazin-3-amine]	16.7	339	95	2.02	302	2.02	1640	431
[2H]C([2H])([2H])c1ncnc2ccc(-c3nnc(N)nc3-c3ccc(F)cc3)cc12 [Example 52, 5-(4-Fluorophenyl)-6-(4-(methyl-d3)quinazolin-6-yl)-1,2,4-triazin-3-amine]							876	973
Cc1ccnc2c(F)cc(-c3nnc(N)nc3-c3ccc(F)cc3)cc12 [Example 20, 6-(8-Fluoro-4-methylquinolin-6-yl)-5-(4-fluorophenyl)-1,2,4-triazin-3-amine]	3.05	1170	28	1.24	866	1.41	617	411
Cc1ccnc2c(F)cc(-c3nnc(N)nc3-c3ccccc3)cc12 [Example 16, 6-(8-Fluoro-4-methylquinolin-6-yl)-5-phenyl-1,2,4-triazin-3-amine]							161	803
CCc1ccnc2ccc(-c3nnc(N)nc3-c3ccc(F)cc3)cc12 [Example 44, 6-(4-Ethylquinolin-6-yl)-5-(4-fluorophenyl)-1,2,4-triazin-3-amine]	4.79	501	65	0.85	720	0.85	646	807
Cc1ccnc2ccc(-c3nnc(N)nc3-c3ccccc3F)cc12 [Example 17, 5-(2-Fluorophenyl)-6-(4-methylquinolin-6-yl)-1,2,4-triazin-3-amine]	15.3	204	162	1.09	265	1.17	1350	2698

Further compounds by falling IC50 [2], results first:

Vd/F [1] [L/kg]	AUC [1] [ng·h/mL]	CL/F [1] [mL/min/kg]	half-life [1] [h]	Cmax [1] [ng/mL]	MRT [1] [h]	IC50 [2] [nM]	IC50 ratio (A1R/A2aR) [2]	Structure (SMILES)
1.57	5030	6.61	2.74	1960	3.13	1420	3557	Cc1ncnc2ccc(-c3nnc(N)nc3-c3ccc(F)cc3)cc12 [Example 19, 5-(4-Fluorophenyl)-6-(4-methylquinazolin-6-yl)-1,2,4-triazin-3-amine]
						930	775	Cc1ncnc2c(F)cc(-c3nnc(N)nc3-c3ccccc3)cc12 [Example 45, 6-(8-Fluoro-4-methylquinazolin-6-yl)-5-phenyl-1,2,4-triazin-3-amine]
14.7	412	78.3	2.17	441	1.79	133	221	Nc1nnc(-c2cc(F)c3ncccc3c2)c(-c2ccccc2)n1 [Example 2, 6-(8-Fluoroquinolin-6-yl)-5-phenyl-1,2,4-triazin-3-amine]
						100	334	[2H]C([2H])([2H])c1ccnc2ccc(-c3nnc(N)nc3-c3ccc(F)cc3)cc12 [Example 22, 5-(4-Fluorophenyl)-6-[4-(trideuteromethyl)-6-quinolinyl]-1,2,4-triazin-3-amine]
15.7	419	78.6	2.3	395	1.61	97	139	Nc1nnc(-c2ccc3ncccc3c2)c(-c2ccccc2)n1 [Example 3, 5-Phenyl-6-(quinolin-6-yl)-1,2,4-triazin-3-amine]
